In patent US6432984B1, “Pyrazolecarboxylic acid derivatives, their preparation, pharmaceutical compositions containing them” (Sanofi-Synthelabo, priority 1999, dated 2002):

Key:
[1] = molecular target: T1, CB1 receptors present in the brain (Mus musculus, UniProt P47746); assay: duration of occupation of the CB1 receptors present in the brain, in vivo after oral administration; conditions: mice, oral 10 mg/kg; for % of occupation of the receptors, 1 hour: 1 hour after administration; for % of occupation of the receptors, 24 hours: 24 hours after administration
T1 construct: from tissue; host or cells: mouse brain
T1 sequence (P47746 whole entry): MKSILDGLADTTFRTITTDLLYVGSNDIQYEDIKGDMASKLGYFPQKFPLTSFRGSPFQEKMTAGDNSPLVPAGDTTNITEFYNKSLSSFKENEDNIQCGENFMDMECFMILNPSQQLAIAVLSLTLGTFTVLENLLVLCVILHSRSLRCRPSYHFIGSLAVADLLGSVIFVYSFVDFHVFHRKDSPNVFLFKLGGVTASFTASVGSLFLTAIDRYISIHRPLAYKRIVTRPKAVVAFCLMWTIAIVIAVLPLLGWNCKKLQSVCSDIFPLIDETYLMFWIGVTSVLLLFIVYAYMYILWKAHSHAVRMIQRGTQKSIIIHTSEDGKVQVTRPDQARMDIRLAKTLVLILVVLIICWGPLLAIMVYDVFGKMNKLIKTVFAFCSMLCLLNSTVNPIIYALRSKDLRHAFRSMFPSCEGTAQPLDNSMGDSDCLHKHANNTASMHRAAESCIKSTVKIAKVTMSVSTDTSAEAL
Description: Moreover, the duration of occupation of the CB1 receptors present in the brain by the 3 compounds below was compared: […]

[2] = test system: hypothermia induced with a cannabinoid receptor agonist (WIN 55212-2); assay: antagonism of the hypothermia induced with WIN 55212-2; type: in vivo; conditions: mice; for ED50: Mus musculus, oral, WIN 55212-2 induced hypothermia; for Duration of action, 24 h, oral dose 1 mg/kg: oral dose 1 mg/kg
Description: In this test, the activity and the duration of action of 3 compounds were compared.

[3] = molecular target: T2, CB1 cannabinoid receptors (Homo sapiens, UniProt P21554); assay: models of adenylate-cyclase inhibition; type: biochemical; conditions: as described in Rinaldi-Carmona et al. 1996
T2 sequence (P21554 whole entry): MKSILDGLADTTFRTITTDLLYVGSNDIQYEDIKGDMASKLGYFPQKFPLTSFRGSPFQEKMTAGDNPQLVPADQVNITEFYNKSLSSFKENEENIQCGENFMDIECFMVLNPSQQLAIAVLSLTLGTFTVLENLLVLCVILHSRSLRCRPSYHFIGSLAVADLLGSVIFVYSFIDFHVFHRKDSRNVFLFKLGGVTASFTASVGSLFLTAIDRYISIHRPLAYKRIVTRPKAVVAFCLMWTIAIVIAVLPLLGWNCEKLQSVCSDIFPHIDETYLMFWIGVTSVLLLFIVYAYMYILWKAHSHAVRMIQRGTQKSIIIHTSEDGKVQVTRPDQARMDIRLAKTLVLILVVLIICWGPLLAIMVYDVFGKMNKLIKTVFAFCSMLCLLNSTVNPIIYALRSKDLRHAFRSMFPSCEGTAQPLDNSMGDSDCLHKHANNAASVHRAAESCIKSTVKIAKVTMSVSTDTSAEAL
Description: More particularly, the compound of the present invention, in its native form or in the form of one of its pharmaceutically acceptable salts, is a powerful and selective antagonist of the CB1 cannabinoid receptors.

[4] = molecular target: T2, CB1 cannabinoid receptors; assay: in vitro affinity for CB1 cannabinoid receptors (conditions of Devane et al.)

Row | % of occupation of the receptors, 1 hour [1] [%] | % of occupation of the receptors, 24 hours ([1]; 10 mg/kg) [%] | % of occupation of the receptors, 24 hours ([1]; listed as compound of formula (I), 10 mg/kg) [%] | antagonist nature in models of adenylate-cyclase inhibition [3] | Ki [4] [nM] | % of occupation of the receptors, 24 hours [1] [%] | SMILES | ED50 [2] [mg/kg] | Duration of action, 24 h, oral dose 1 mg/kg ([2]; 24 h after administration) | Duration of action, 24 h, oral dose 10 mg/kg ([2]; oral dose 10 mg/kg, 24 h after administration)
1 | 82 | 44 | 44 | antagonist | 5.4 | – | CCc1c(C(=O)NN2CCCCC2)nn(-c2ccc(Cl)cc2Cl)c1-c1ccc(Br)cc1 [Compound of formula (I), N-piperidino-5-(4-bromophenyl)-1-(2,4-dichlorophenyl)-4-ethylpyrazole-3-carboxamide] | 0.3 | active | –
2 | 89 | – | – | – | 8 | 4 | Cc1c(C(=O)NN2CCCCC2)nn(-c2ccc(Cl)cc2Cl)c1-c1ccc(Br)cc1 [Compound A, reference compound] | 0.3 | not active | active
